Reference: paper PMC2932999 (Journal of Medicinal Chemistry, 2010)

Assays:
[1] = test system: wild type D197 NAs (B/Perth and B/Gifu); format: biochemical, influenza B virus
[2] = in vivo; cited from earlier work
[3] = target: D197 Gifu NA (B/Gifu/11/2005 wild type neuraminidase) (Influenza B virus, UniProt Q38G88); format: biochemical; conditions: read-out: Km for MUNANA
[4] = target: D197 Perth NA (B/Perth/211/2001 wild type neuraminidase) (Influenza B virus, UniProt Q3S340); format: biochemical; conditions: read-out: Km for MUNANA
[5] = target: recombinant B/Perth/211/2001 wild type D197 neuraminidase heads (influenza B virus B/Perth/211/2001); test: negative-stain electron microscopy

Row | Molecule | association of inhibitor with NA [1] | dissociation of inhibitor from NA [1] | also measured
1 | CC(=O)N[C@H]1[C@H]([C@H](O)[C@H](O)CO)OC(C(=O)O)=C[C@@H]1NC(=N)N [compound 1, zanamivir] | slow association | slow dissociation | levels delivered to the upper respiratory tract [2]: up to 10 000 nmol/L
2 | CC(=O)N[C@H]1[C@H]([C@H](O)[C@H](O)CO)OC(Oc2ccc3c(C)cc(=O)oc3c2)(C(=O)O)C[C@@H]1O (some centres unmarked) [MUNANA, 4-methylumbelliferyl-N-acetylneuraminic acid] | – | – | Km [3]: 10.5 ± 1.4 µM; Km [4]: 12.4 ± 4.2 µM
3 | recombinant B/Perth/211/2001 wild type D197 neuraminidase heads (enzyme) | – | – | stoichiometry N [5]: 4
4 | CCC(CC)[C@H](NC(C)=O)[C@@H]1[C@H](O)[C@@H](C(=O)O)C[C@H]1NC(=N)N [compound 3, peramivir] | slow association | slow dissociation | –
